Laboratory results from paper PMC3431598, “Phylogenetic and Transcriptomic Analysis of Chemosensory Receptors in a Pair of Divergent Ant Species Reveals Sex-Specific Signatures of Odor Coding” (PLoS Genetics, 2012).

Target: T1, HsOrco (with AgOR10) (Harpegnathos saltator, UniProt E2BJ30)
T1 construct: gene Orco; full-length CDS from worker antennal cDNA; cRNA in Xenopus oocytes with mosquito AgOR10; with Odorant receptor 10 (Anopheles gambiae)
T1 sequence (E2BJ30 1-479): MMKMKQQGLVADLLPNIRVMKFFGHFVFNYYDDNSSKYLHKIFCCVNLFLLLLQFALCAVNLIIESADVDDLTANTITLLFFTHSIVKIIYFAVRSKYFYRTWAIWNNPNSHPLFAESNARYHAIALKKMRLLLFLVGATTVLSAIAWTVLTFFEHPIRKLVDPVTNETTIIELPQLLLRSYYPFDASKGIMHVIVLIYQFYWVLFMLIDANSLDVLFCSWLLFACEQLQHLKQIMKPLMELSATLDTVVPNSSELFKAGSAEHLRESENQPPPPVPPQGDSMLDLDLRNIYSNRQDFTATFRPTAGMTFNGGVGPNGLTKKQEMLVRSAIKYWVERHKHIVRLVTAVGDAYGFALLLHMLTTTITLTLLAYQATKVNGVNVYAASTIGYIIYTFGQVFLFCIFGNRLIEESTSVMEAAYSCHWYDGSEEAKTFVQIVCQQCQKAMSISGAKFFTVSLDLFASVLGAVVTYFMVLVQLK
T1 sequence (B5U0U7 1-375 partner): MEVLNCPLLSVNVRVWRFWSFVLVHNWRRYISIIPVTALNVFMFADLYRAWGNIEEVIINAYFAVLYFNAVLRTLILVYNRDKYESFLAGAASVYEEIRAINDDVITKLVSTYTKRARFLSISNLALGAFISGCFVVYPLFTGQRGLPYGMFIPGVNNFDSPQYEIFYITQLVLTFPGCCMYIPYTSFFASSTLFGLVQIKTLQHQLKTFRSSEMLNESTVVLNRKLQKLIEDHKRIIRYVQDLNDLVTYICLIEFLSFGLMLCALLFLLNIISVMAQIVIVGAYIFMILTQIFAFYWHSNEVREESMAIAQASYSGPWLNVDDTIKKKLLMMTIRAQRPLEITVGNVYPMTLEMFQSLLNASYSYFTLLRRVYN
Test: two-electrode voltage clamp, Xenopus oocytes
Assay type: cell-based
Settings: Orco agonist; AgOR10 co-expressed; -80 mV

**Q.** With CCc1ccc(NC(=O)CSc2nnc(-c3cccnc3)n2CC)cc1 [VUAA1] as the molecule, how does the “two-electrode voltage clamp, Xenopus oocytes” value read?
**A.** produced responses to VUAA1 (an agonist for Orco)
